{
  "source": "patent US9919941B2",
  "about": "“Multiple uses of amine salts for industrial water treatment” (AMSA, Inc., priority 2012, dated 2018)",
  "key": {"[1]": {"test": "calcium carbonate scale inhibition (conductometric titration, supersaturation ratio Sr)", "protocol": "To a 100 mL beaker were added 60 mL of HPLC-grade water and 3 mL of 0.1 M calcium chloride. An appropriate amount (0.5-4 mL) of an aqueous solution of the inhibitor compound of Formula (I) to be tested was then added. The solution was magnetically stirred at a constant speed for all experiments. The sample was then titrated with 0.1 M sodium carbonate. After addition of each 0.2 mL aliquot of sodium carbonate titrant, the solution was mixed for 1 min and then the conductivity of the solution measured.\nAs titrant is added the conductivity increases in a linear fashion. When the supersaturation point is reached, the conductivity decreases and precipitation begins. This is considered the endpoint of the titration. The resulting titration endpoint volumes are used to calculate a relative supersaturation ratio (Sr). This is the ratio of the supersaturation of calcium carbonate in the presence of the compound of Formula (I) being tested to the value of the supersaturation of water without inhibitor (distilled water plus 3 mL of 0.1 M calcium chloride). Thus, compounds with Sr>1 are displaying scale inhibition.\nThe scale inhibition performance of various compounds of Formula (I) and comparative compounds were compared at the same molar concentration. These compounds were tested at 60 μM concentration except where noted otherwise. Compound numbers are from Table 1."}, "[2]": {"system": "planktonic microbial population of cooling tower water", "test": "time-kill biocidal efficacy, hybrid planktonic-sessile procedure: planktonic population", "format": "cell-based, natural mixed aerobic microbial population", "conditions": "for Planktonic, 20-24 h, % of Control / Planktonic, 48-54 h, % of Control / Planktonic, 120 h, % of Control / Planktonic CFU/10 mL, 20-24 h / Planktonic CFU/10 mL, 48-54 h / Planktonic CFU/10 mL, 120 h / Planktonic CFU/10 mL, Total / Planktonic, Total, % of Control / reduction in the total planktonic population / activity at 10 ppm: 10 ppm Compound B, others equimolar; for Planktonic, 20-24 h, % of Control / Planktonic, 48-54 h, % of Control / Planktonic, 120 h, % of Control / Planktonic CFU/10 mL, 20-24 h / Planktonic CFU/10 mL, 48-54 h / Planktonic CFU/10 mL, 120 h / Planktonic CFU/10 mL, Total / Planktonic, Total, % of Control / activity at 10 ppm: exposure 110 minutes; for Planktonic CFU/10 mL, 20-24 h: fast growing population; for Planktonic CFU/10 mL, 48-54 h: moderate growth rate population; for Planktonic CFU/10 mL, 120 h: slow growth rate population; for reduction in the total planktonic population: 110 minutes", "protocol": "An experiment was conducted to assess biocidal effectiveness of Compounds A and B and their respective Compounds 13 and 1 anion analogs. Time-kill tests were conducted using a hybrid planktonic-sessile procedure which allowed assessment of biocidal effectiveness against both planktonic and sessile microbial populations. A natural mixed aerobic microbial population in samples collected from an operating cooling tower was used as inoculum for the test. Biocide test concentration for Compound B was 10 ppm. All other products were tested at the equivalent molar concentration. Biocide exposure was 110 minutes. The following procedure was used which generally followed the biocidal testing method of Walter, R. W. and Cooke, L. […] A New Multifunctional Biocide Which Enhances Corrosion Inhibition,” NACE Paper 410, 1997. A water sample was collected from a cooling tower that contained a natural mixed population of microorganisms that grew at different rates when plated on Petrifilm. The populations of cells that grew on Petrifilm in 20-24 hours, 48-54 hours and at 120 hours were treated as separate populations. […] The washers were allowed seven days to develop a biofilm on their surface. Prior to chemical treatment, 10 mL aliquots of the CTW were removed from the beaker and placed into individual exposure test tubes along with a single washer. Test compounds were then added to the individual tubes at equimolar concentrations. All exposure tests including untreated controls were conducted in triplicate (i.e., three washers in separate exposure tubes). After addition of the test compound, the tube was briefly mixed by mild vortexing and again occasionally throughout the exposure time. Determination of residual viable cell population in the bulk water: 1 mL of the water from the exposure tube was plated on petrifilm. A second 1 ml was added to 9 mL tube of Letheen broth and mixed by shaking 10 times. A 1 mL aliquot was plated on petrifilm, a second 1 mL aliquot was added to a 9 ml tube of Butterfields Broth and again shaken 10 times. This serial sequence of plating the dilution and subsequent 1/10 dilution was repeated through 10^-4 to 10^-5 dilution. Determination of colony forming units (CFU) at different incubation times: After plating the various solutions on Petrifilm, the films were incubated at 36° C. for the first 24 hours. At 20 hours the […] read and CFU were recorded. This population was defined as a fast growing population. The […] then incubated for additional time either at 36° C. or room temperature and read at 54 hours. This second population is in addition to the fast growth rate population and was defined as moderate growth rate organisms. Incubation was continued and the […] again after 120 hours. This third population was also treated as separate from the fast and moderate growth rate populations and is referred to as the slow growth rate population. As noted above, each compound was evaluated in triplicate with three separate washers and the results were averaged. Average CFU/mL values were used to calculate total planktonic test population (CFU/10 mL) and total sessile test population (CFU/washer) in each test system."}},
  "note": "Like-named read-outs stand apart in the source and are kept apart here.",
  "data": [
    {"smiles": "CCCCCCCCCCOCCCN.O=C(O)CC(O)(CC(=O)O)C(=O)O", "note": "[Compound 1, 2-hydroxypropane-1,2,3-tricarboxylic acid salt of aminopropyloxydecane]", "values": [
      {"measurement": "Sr (supersaturation ratio)", "setting": "[1]; 60 μM", "value": 1.4},
      {"measurement": "Planktonic, 20-24 h, % of Control", "setting": "[2]; 20-24 h incubation", "value": 97.9, "unit": "%"},
      {"measurement": "Planktonic, 48-54 h, % of Control", "setting": "[2]; 48-54 h incubation", "value": 90.3, "unit": "%"},
      {"measurement": "Planktonic, 120 h, % of Control", "setting": "[2]; 120 h incubation", "value": 28.4, "unit": "%"},
      {"measurement": "Planktonic CFU/10 mL, 20-24 h", "setting": "[2]; 20-24 h incubation", "value": 970, "unit": "CFU/10 mL"},
      {"measurement": "Planktonic CFU/10 mL, 48-54 h", "setting": "[2]; 48-54 h incubation", "value": "340,000 CFU/10 mL"},
      {"measurement": "biocidal effectiveness compared with parent salt (in words)", "setting": "[2]; planktonic and sessile populations, same experimental conditions and molar concentration", "value": "very similar (within experimental error) to those obtained with Compound B"},
      {"measurement": "Planktonic CFU/10 mL, 120 h", "setting": "[2]; 120 h incubation", "value": "2,280,000 CFU/10 mL"},
      {"measurement": "Planktonic CFU/10 mL, Total", "setting": "[2]; total population", "value": "2,620,000 CFU/10 mL"},
      {"measurement": "Planktonic, Total, % of Control", "setting": "[2]; total population", "value": 31.1, "unit": "%"}
    ]},
    {"smiles": "CCCCCCCCCCSCCN.Cl", "note": "[Compound A, 2-(decylthio)ethanamine hydrochloride]", "values": [
      {"measurement": "Sr (supersaturation ratio)", "setting": "[1]; 60 μM", "value": 1.0},
      {"measurement": "Sr (supersaturation ratio)", "setting": "[1]; 64 μM", "value": 1.2},
      {"measurement": "reduction in the total planktonic population", "setting": "[2]", "value": 97, "unit": "%"},
      {"measurement": "activity at 10 ppm", "setting": "[2]; 20-24 h incubation, read-out: Planktonic, 20-24 h, % of Control", "value": 94.9, "unit": "%"},
      {"measurement": "activity at 10 ppm", "setting": "[2]; 48-54 h incubation, read-out: Planktonic, 48-54 h, % of Control", "value": 3.6, "unit": "%"},
      {"measurement": "activity at 10 ppm", "setting": "[2]; 110 min, total population, read-out: Planktonic, Total, % of Control", "value": 2.9, "unit": "%"},
      {"measurement": "activity at 10 ppm", "setting": "[2]; 120 h incubation, read-out: Planktonic, 120 h, % of Control", "value": 2.8, "unit": "%"},
      {"measurement": "Planktonic CFU/10 mL, 20-24 h", "setting": "[2]; 20-24 h incubation", "value": 940, "unit": "CFU/10 mL"},
      {"measurement": "Planktonic CFU/10 mL, 48-54 h", "setting": "[2]; 48-54 h incubation", "value": "13,500 CFU/10 mL"},
      {"measurement": "Planktonic CFU/10 mL, 120 h", "setting": "[2]; 120 h incubation", "value": "227,000 CFU/10 mL"},
      {"measurement": "Planktonic CFU/10 mL, Total", "setting": "[2]; total population", "value": "241,000 CFU/10 mL"}
    ]},
    {"smiles": "CC(=O)O.CCCCCCCCCCOCCCN", "note": "[Compound B, ethanoic acid salt of aminopropyloxydecane]", "values": [
      {"measurement": "Sr (supersaturation ratio)", "setting": "[1]; 60 μM", "value": 1.0},
      {"measurement": "scale inhibition (in words)", "setting": "[1]; about 60 μM", "value": "no scale inhibition"},
      {"measurement": "reduction in the total planktonic population", "setting": "[2]", "value": 63, "unit": "%"},
      {"measurement": "Planktonic, 20-24 h, % of Control", "setting": "[2]; 20-24 h incubation", "value": 81.7, "unit": "%"},
      {"measurement": "Planktonic, 48-54 h, % of Control", "setting": "[2]; 48-54 h incubation", "value": 85.0, "unit": "%"},
      {"measurement": "Planktonic, 120 h, % of Control", "setting": "[2]; 120 h incubation", "value": 34.6, "unit": "%"},
      {"measurement": "Planktonic CFU/10 mL, 20-24 h", "setting": "[2]; 20-24 h incubation", "value": 810, "unit": "CFU/10 mL"},
      {"measurement": "Planktonic CFU/10 mL, 48-54 h", "setting": "[2]; 48-54 h incubation", "value": "320,000 CFU/10 mL"},
      {"measurement": "Planktonic CFU/10 mL, 120 h", "setting": "[2]; 120 h incubation", "value": "2,780,000 CFU/10 mL"},
      {"measurement": "Planktonic CFU/10 mL, Total", "setting": "[2]; total population", "value": "3,100,000 CFU/10 mL"},
      {"measurement": "Planktonic, Total, % of Control", "setting": "[2]; total population", "value": 36.8, "unit": "%"}
    ]}
  ]
}
